Values after ≈ are worked out from the molar mass of the structure shown.

A word on the GI50: it is the concentration that inhibits growth by half. The low end stands for more potent growth inhibition, the high end for less potent growth inhibition.

The test system of one assay is P388. As to the kind of experiment: Cytotoxicity against mouse P388 cells. Type of assay: functional.
In the next assay the test system is A549. As to the kind of experiment: Cytotoxicity against human A549 cells. Type of assay: functional.

`C=C[C@@]1(C)CC[C@H](/C(C)=C\CCC(=C)C)C[C@@H]1C(=C)C` [INELEGANENE]: the results for the concentration for 50% growth inhibition (GI50) in the assay on P388 and in the assay with A549 were 0.2 µg/mL (≈ 0.734 µM) and 3.63 µg/mL (≈ 13.3 µM), respectively.
